According to BindingDB's records for PubMed 37122541 (Emory University, 2023):

Target: rRNA adenine N-6-methyltransferase ErmC (Staphylococcus aureus)
Test: Inhibition of Staphylococcus aureus ErmC methyltransferase

- IC50: 450 nM
SMILES: CC(C)c1ccc(NC(=S)N/N=C/c2cc(Cl)cc(Cl)c2O)cc1
